Tested on: hRXR α, β, or γ
Assay: Transactivation assay (RARE-Luc dual luciferase reporter in HEK-293 cells), activity relative to LG268
Assay type: cell-based, human
Details: 24 h, luciferase activity expressed relative to LG268; for Activity at 1 µM: compound at 1 µM; for Activity at 300 nM: compound at 300 nM
Method: HEK-293 cells (ATCC) were seeded one day prior to transfection. For assessing EC50 of activation of RXR isoforms 2 μg of hRXR α, β, or γ (OriGENE, USA) over-expressing vector, 1 μg of plasmid expressing firefly luciferase under RARE element (RARE-Luc) and 25 ng of renilla luciferase vector (QIAGEN, USA) were co-transfected using lipofectamine reagent. Post 24 h of transfection, cells were treated with different concentrations of RXR agonists (100 nM, 300 nM and 1 uM) for 24 h followed by estimation of luciferase activity using Dual Luciferase Reporter Assay System (Promega). Luciferase activity was normalized to that of renilla luciferase. The activities of the RXR compounds were expressed relative to LG268, a known RXR agonist.

SMILES | Activity at 1 µM | Activity at 300 nM
C=C(c1ccc(C(=O)O)cn1)c1sc2c(c1C)C(C)(C)CCC2(C)C [Compound 6, 6-[1-(3,4,4,7,7-Pentamethyl-4,5,6,7-tetrahydro-1-benzothiophen-2-yl)ethenyl]pyridine-3-carboxylic acid] | *** (>0.8 and <0.9) | –
CC1(C)CCC(C)(C)c2sc(N(CC3CC3)c3ccc(C4CC4C(=O)O)cc3)nc21 (stereo not drawn) [Compound 108, 2-{4-[(cyclopropylmethyl) (4,4,7,7-tetramethyl-4,5,6,7-tetrahydro-1,3-benzothiazol-2-yl)amino]phenyl}cyclopropanecarboxylic acid] | – | ***** (>0.6)
CC1(C)CCC(C)(C)c2sc(N(c3ccc(C(=O)O)cc3)c3ccc(C(=O)O)o3)nc21 [Compound 63, 5-[(4-carboxyphenyl) (4,4,7,7-tetramethyl-4,5,6,7-tetrahydro-1,3-benzothiazol-2-yl)amino]furan-2-carboxylic acid] | – | *** (>0.4 and <0.5)
Cc1c(C2CC2c2ccc(C(=O)O)cc2)sc2c1C(C)(C)CCC2(C)C (stereo not drawn) [Compound 31, 4-[2-(3,4,4,7,7-Pentamethyl-4,5,6,7-tetrahydro-1-benzothiophen-2-yl)cyclopropyl]benzoic acid] | ** (>0.7 and <0.8) | –
Cc1c(N(c2ccc(C(=O)O)cc2)C2CC2)sc2c1C(C)(C)CCC2(C)C [Compound 10, 4-[Cyclopropyl(3,4,4,7,7-pentamethyl-4,5,6,7-tetrahydro-1-benzothiophen-2-yl)amino]benzoic acid] | ***** (>1) | –
CCN(c1ncc(C(=O)O)cn1)c1nc2c(s1)C(C)(C)CCC2(C)C [Compound 42, 2-[Ethyl(4,4,7,7-tetramethyl-4,5,6,7-tetrahydro-1,3-benzothiazol-2-yl)amino]pyrimidine-5-carboxylic acid] | ** (>0.7 and <0.8) | –
CCCN(c1ccc(C(=O)O)cn1)c1nc2c(s1)C(C)(C)C=CC2(C)C [Compound 81, 6-[propyl(4,4,7,7-tetramethyl-4,7-dihydro-1,3-benzothiazol-2-yl)amino]pyridine-3-carboxylic acid] | – | ***** (>0.6)
CC1(C)CCC(C)(C)c2sc(C3(c4ccc(C(=O)O)cc4)CC3)nc21 [Compound 98, 4-[1-(4,4,7,7-tetramethyl-4,5,6,7-tetrahydro-1,3-benzothiazol-2-yl)cyclopropyl]benzoic acid] | – | **** (>0.5 to <0.6)
CC1(C)CCC(C)(C)c2sc(N(CC3CC3)c3ncc(C(=O)O)cc3Cl)nc21 [Compound 68] | – | * (<0.3)
CCN(c1ccc(C(=O)O)cc1)c1sc2c(c1C)C(C)(C)CCC2(C)C [Compound 9, 4-[Ethyl(3,4,4,7,7-pentamethyl-4,5,6,7-tetrahydro-1-benzothiophen-2-yl)amino]benzoic acid] | *** (>0.8 and <0.9) | –
Cc1c(N(c2ccc(C(=O)O)cn2)C(C)C)sc2c1C(C)(C)CCC2(C)C [Compound 21, 6-[(3,4,4,7,7-Pentamethyl-4,5,6,7-tetrahydro-1-benzothiophen-2-yl) (propan-2-yl)amino]pyridine-3-carboxylic acid] | ***** (>1) | –
Cc1c(N(CC(C)C)c2ccc(C(=O)O)c([N+](=O)[O-])c2)sc2c1C(C)(C)CCC2(C)C [Compound 51, 4-[(2-methylpropyl) (3,4,4,7,7-pentamethyl-4,5,6,7-tetrahydro-1-benzothiophen-2-yl)amino]-2-nitrobenzoic acid] | – | ***** (>0.6)
Cc1c(N(c2ccccc2)c2ccc(C(=O)O)cc2)sc2c1C(C)(C)CCC2(C)C [Compound 102, 4-[(3,4,4,7,7-pentamethyl-4,5,6,7-tetrahydro-1-benzothiophen-2-yl) (phenyl)amino]benzoic acid] | – | ***** (>0.6)
Cc1c(N(c2ccc(C(=O)O)cc2)S(C)(=O)=O)sc2c1C(C)(C)CCC2(C)C [Compound 14, 4-[(Methylsulfonyl) (3,4,4,7,7-pentamethyl-4,5,6,7-tetrahydro-1-benzothiophen-2-yl)amino]benzoic acid] | **** (>0.9 to <1) | –
Cc1c(N(CC(C)C)c2ccc(C(=O)O)c(Oc3ccccc3)c2)sc2c1C(C)(C)CCC2(C)C [Compound 57, 4-[(2-methylpropyl) (3,4,4,7,7-pentamethyl-4,5,6,7-tetrahydro-1-benzothiophen-2-yl)amino]-2-phenoxybenzoic acid] | – | ***** (>0.6)
CC1(C)CCC(C)(C)c2sc(N(CC3CC3)c3ccc(CCC(=O)O)cc3)nc21 [Compound 106, 3-{4-[(cyclopropylmethyl) (4,4,7,7-tetramethyl-4,5,6,7-tetrahydro-1,3-benzothiazol-2-yl)amino]phenyl}propanoic acid] | – | ***** (>0.6)
CO/N=C(\c1ccc(C(=O)O)cc1)c1sc2c(c1C)C(C)(C)CCC2(C)C [Compound 4, 4-[(E,Z)-(Methoxyimino) (3,4,4,7,7-pentamethyl-4,5,6,7-tetrahydro-1-benzothiophen-2-yl)methyl]benzoic acid] | **** (>0.9 to <1) | –

SMILES | Activity at 1 µM | Activity at 300 nM
COc1cc(N(CC2CC2)c2nc3c(s2)C(C)(C)CCC3(C)C)ccc1C(=O)O [Compound 72] | – | * (<0.3)
CC1(C)CCC(C)(C)c2sc(N(c3ccc(C(=O)O)cn3)C3CC3)nc21 [Compound 37, 6-[Cyclopropyl(4,4,7,7-tetramethyl-4,5,6,7-tetrahydro-1,3-benzothiazol-2-yl)amino]pyridine-3-carboxylic acid] | ***** (>1) | –
CC1(C)CCC(C)(C)c2sc(C(=O)c3ccc(C(=O)O)cc3)nc21 [Compound 47, 4-[(4,4,7,7-Tetramethyl-4,5,6,7-tetrahydro-1,3-benzothiazol-2-yl)carbonyl]benzoic acid] | * (<0.7) | –
Cc1c(N(c2ccc(C(=O)O)cn2)S(C)(=O)=O)sc2c1C(C)(C)CCC2(C)C [Compound 22, 6-[(Methylsulfonyl) (3,4,4,7,7-pentamethyl-4,5,6,7-tetrahydro-1-benzothiophen-2-yl)amino]pyridine-3-carboxylic acid] | ***** (>1) | –
CC(C)CN(c1ccc(C(=O)O)cc1)c1nc2c(s1)C(C)(C)C/C(=N/O)C2(C)C [Compound 89, 4-{[(5Z)-5-(hydroxyimino)-4,4,7,7-tetramethyl-4,5,6,7-tetrahydro-1,3-benzothiazol-2-yl](2-methylpropyl)amino}benzoic acid] | – | ** (>0.3 and <0.4)
Cc1c(N(CC2CC2)c2ccc(C(=O)O)cn2)sc2c1C(C)(C)CCC2(C)C [Compound 20, 6-[(Cyclopropylmethyl) (3,4,4,7,7-pentamethyl-4,5,6,7-tetrahydro-1-benzothiophen-2-yl)amino]pyridine-3-carboxylic acid] | ***** (>1) | –
Cc1c(C2(c3ccc(C(=O)O)cn3)CC2)sc2c1C(C)(C)CCC2(C)C [Compound 7, 6-[1-(3,4,4,7,7-Pentamethyl-4,5,6,7-tetrahydro-1-benzothiophen-2-yl)cyclopropyl]pyridine-3-carboxylic acid] | ***** (>1) | –
CC(C)CN(c1nc2c(s1)C(C)(C)CCC2(C)C)c1ncc(C(=O)O)cc1Cl [Compound 69, 5-chloro-6-[(2-methylpropyl) (4,4,7,7-tetramethyl-4,5,6,7-tetrahydro-1,3-benzothiazol-2-yl)amino]pyridine-3-carboxylic acid] | – | * (<0.3)
CCOC1CC(C)(C)c2sc(N(C)c3ccc(C(=O)O)cc3)nc2C1(C)C (stereo not drawn) [Compound 35, 4-[(5-Ethoxy-4,4,7,7-tetramethyl-4,5,6,7-tetrahydro-1,3-benzothiazol-2-yl)(methyl)amino]benzoic acid] | *** (>0.8 and <0.9) | –
Cc1c(/C=C\c2ccc(C(=O)O)cc2)sc2c1C(C)(C)CCC2(C)C [Compound 30, 4-[(Z)-2-(3,4,4,7,7-Pentamethyl-4,5,6,7-tetrahydro-1-benzothiophen-2-yl)ethenyl]benzoic acid] | ***** (>1) | –
Cc1c(N(CC2CC2)c2ccc(C(=O)O)cc2)sc2c1C(C)(C)CCC2(C)C [Compound 11, 4-[(Cyclopropylmethyl) (3,4,4,7,7-pentamethyl-4,5,6,7-tetrahydro-1-benzothiophen-2-yl)amino]benzoic acid] | **** (>0.9 to <1) | –
Cc1nc2cc(C(=O)O)ccc2n1-c1nc2c(s1)C(C)(C)CCC2(C)C [Compound 44, 2-Methyl-1-(4,4,7,7-tetramethyl-4,5,6,7-tetrahydro-1,3-benzothiazol-2-yl)-1H-benzimidazole-5-carboxylic acid] | * (<0.7) | –
Cc1c(N(C)c2ccc(C(=O)O)cn2)sc2c1C(C)(C)CCC2(C)C [Compound 17, 6-[Methyl(3,4,4,7,7-pentamethyl-4,5,6,7-tetrahydro-1-benzothiophen-2-yl)amino]pyridine-3-carboxylic acid] | ***** (>1) | –
Cc1c(N(CC(C)C)c2ccc(C(=O)O)c(O)c2)sc2c1C(C)(C)CCC2(C)C [Compound 91, 2-hydroxy-4-[(2-methylpropyl) (3,4,4,7,7-pentamethyl-4,5,6,7-tetrahydro-1-benzothiophen-2-yl)amino]benzoic acid] | – | ***** (>0.6)
CC1(C)CCC(C)(C)c2sc(Nc3ccc(C(=O)O)cc3O)nc21 [Compound 92, 3-hydroxy-4-[(4,4,7,7-tetramethyl-4,5,6,7-tetrahydro-1,3-benzothiazol-2-yl)amino]benzoic acid] | – | * (<0.3)
COc1ccc(C2CC2C(=O)O)cc1-c1sc2c(c1C)C(C)(C)CCC2(C)C (stereo not drawn) [Compound 16, 2-[4-Methoxy-3-(3,4,4,7,7-pentamethyl-4,5,6,7-tetrahydro-1-benzothiophen-2-yl)phenyl]cyclopropanecarboxylic acid] | * (<0.7) | –

Reference: US9862713B2, “Substituted bicyclic heteroaryl compounds as RXR agonists” (CONNEXIOS LIFE SCIENCES PVT. LTD., priority 2014, dated 2018)
